Laboratory results published in US20170008888A1 (KYORIN PHARMACEUTICAL CO., LTD., priority 2014, published 2017).

Legend:
human PBMCs = experiment: Human PBMC TNF-α response to endotoxin (ELISA); format: cell-based; conditions: 0.1 μg/ml LPS 16 h, read-out: EC50 for the inhibition of the human PBMC TNF-α response to endotoxin, ave. ± S.D.
Procedure, shortened: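 PBMCs at 2e6 cells/ml in RPMI 1640 with 10% charcoal-dextran-treated FBS were pre-treated 1 h at 37 °C with compound (4-point 1:5 dilution from 10 μM). Stimulation with 0.1 μg/ml E. coli 0111:B4 LPS for 16 h; TNF-α measured by ELISA (A450) in 25-fold diluted supernatant.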

[1] = target: T1, BRD4 bromodomain domain I [BRD4(1)] (Homo sapiens, UniProt O60885); experiment: BRD4 bromodomain domain 1 inhibition assay (TR-FRET); format: binding
T1 construct: BRD4 bromodomain domain I [BRD4(1)]; purchased Cayman Chemicals
Description: The inhibitory activity of test compounds on the bromodomain, BRD4 bromodomain domain I [BRD4(1)], were determined via TR-FRET after a slight modification of the manufacturer's protocol (Cayman Chemicals, Ann Arbor, Mich.). Briefly, compounds were diluted to a 20× ([…]) concentration in DMSO. 100 nL of 20× compounds were then dry stamped into triplicate wells of black, low volume 384 well plates (Aurora Biotechnologies, Carlsbad, Calif.) using the Mosquito liquid handler (TPP Labtech, Melbourn, UK). 20× compounds were then diluted to a 4× (40 μM) concentration in Assay Buffer to result in 2% DMSO content. […] JQ1 at 10 μM or 0.5% DMSO final concentrations were used as the positive and negative controls, respectively, to set the assay window. The fluorescence was read in a time-resolved format on the Biotec Synergy 2 plate reader by exciting the signal at 340 nm and reading emissions at 620 and 670, using a 100 μs delay and 200 μs read window. […] Briefly, TR-FRET ratio values were normalized to the average TR-FRET ratio value given by 10 μM JQ1. […]

ERK5 = target: T2, ERK5 (Homo sapiens, UniProt Q13164); experiment: Probe-based (AX9989 acyl phosphate ATP probe) kinase profiling in Jurkat lysate: ERK5; format: binding; conditions: for IC50: calculated from percent inhibition and screening concentration, Jurkat lysate, AX9989 probe; for inhibition at 10 µM: screening concentration 10 μM
T2 construct: screened for activity against several kinases in Jurkat cells; endogenous in cells; host or cells: Jurkat cell lysate
T2 sequence (Q13164 whole entry): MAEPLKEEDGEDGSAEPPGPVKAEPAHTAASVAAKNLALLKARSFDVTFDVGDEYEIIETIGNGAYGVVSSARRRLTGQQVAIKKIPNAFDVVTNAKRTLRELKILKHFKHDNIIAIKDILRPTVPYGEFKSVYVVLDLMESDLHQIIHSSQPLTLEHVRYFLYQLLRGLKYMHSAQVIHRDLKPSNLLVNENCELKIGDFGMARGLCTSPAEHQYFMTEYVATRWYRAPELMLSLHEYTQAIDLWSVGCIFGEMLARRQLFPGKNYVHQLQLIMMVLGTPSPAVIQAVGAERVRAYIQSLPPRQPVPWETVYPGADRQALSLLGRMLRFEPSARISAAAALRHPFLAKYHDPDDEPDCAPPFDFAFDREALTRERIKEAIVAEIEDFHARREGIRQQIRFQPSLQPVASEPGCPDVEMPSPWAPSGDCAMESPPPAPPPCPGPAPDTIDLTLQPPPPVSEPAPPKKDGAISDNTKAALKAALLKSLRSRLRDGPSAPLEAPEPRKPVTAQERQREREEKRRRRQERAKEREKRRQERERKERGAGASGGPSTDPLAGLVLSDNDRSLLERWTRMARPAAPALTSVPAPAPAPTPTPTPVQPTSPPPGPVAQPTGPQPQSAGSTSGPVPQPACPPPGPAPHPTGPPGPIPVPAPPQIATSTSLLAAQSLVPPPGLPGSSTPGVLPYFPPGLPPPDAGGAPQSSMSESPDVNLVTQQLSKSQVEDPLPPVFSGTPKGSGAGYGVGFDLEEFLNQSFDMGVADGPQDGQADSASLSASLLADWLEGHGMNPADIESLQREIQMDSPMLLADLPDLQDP
Procedure, shortened: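 Gel-filtered Jurkat lysate (5 mg/ml, 20 mM MnCl2) preincubated 15 min at room temperature with compound, then labelled with 5 μM AX9989 acyl phosphate ATP probe. Probe-labelled ERK5 active-site peptides quantified by LC/MS after trypsin digestion and streptavidin capture; IC50 calculated from percent inhibition at the screening concentration.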

AurA = target: T3, AurA (Homo sapiens, UniProt O14965); experiment: Probe-based (AX9989) kinase profiling in Jurkat lysate: AurA; format: binding; conditions: read-out: AurA Inhibition % at indicated screening concentration; for inhibition at 10 µM: screening concentration 10 μM
T3 construct: screened for activity against several kinases in Jurkat cells; endogenous in cells; host or cells: Jurkat cell lysate
T3 sequence (O14965 1-403): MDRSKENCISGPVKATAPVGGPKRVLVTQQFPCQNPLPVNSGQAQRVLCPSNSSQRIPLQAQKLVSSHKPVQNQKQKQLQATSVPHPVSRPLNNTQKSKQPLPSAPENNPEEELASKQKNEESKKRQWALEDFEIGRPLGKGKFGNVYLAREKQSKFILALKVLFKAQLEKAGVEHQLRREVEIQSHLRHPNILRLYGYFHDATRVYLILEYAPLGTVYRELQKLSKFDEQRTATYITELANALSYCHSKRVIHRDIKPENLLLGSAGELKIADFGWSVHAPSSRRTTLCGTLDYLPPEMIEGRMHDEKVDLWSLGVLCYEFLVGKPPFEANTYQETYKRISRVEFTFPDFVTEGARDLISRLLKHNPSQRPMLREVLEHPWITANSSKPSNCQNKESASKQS
Procedure, shortened: (§1)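 Gel-filtered Jurkat lysate (HEPES pH 7.5, 20 mM MnCl2, 5 mg/ml) was pre-incubated 15 min with compound at room temperature, then labelled with 5 μM acyl-phosphate ATP probe AX9989. Tryptic probe-labelled active-site peptides were streptavidin-captured and quantified by LC/MS. Percent inhibition reflected the decrease in labelled-peptide intensity versus no compound.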

AurB or AurC = experiment: Probe-based (AX9989) kinase profiling in Jurkat lysate: AurB or AurC; format: binding
Procedure, shortened: as §1

JAK1 = target: T4, JAK1 (Homo sapiens, UniProt P23458); experiment: Probe-based (AX9989) kinase profiling in Jurkat lysate: JAK1; format: binding; conditions: read-out: JAK1 Inhibition % at indicated screening concentration; for inhibition at 10 µM: screening concentration 10 μM
T4 construct: screened for activity against several kinases in Jurkat cells; endogenous in cells; host or cells: Jurkat cell lysate
T4 sequence (P23458 whole entry): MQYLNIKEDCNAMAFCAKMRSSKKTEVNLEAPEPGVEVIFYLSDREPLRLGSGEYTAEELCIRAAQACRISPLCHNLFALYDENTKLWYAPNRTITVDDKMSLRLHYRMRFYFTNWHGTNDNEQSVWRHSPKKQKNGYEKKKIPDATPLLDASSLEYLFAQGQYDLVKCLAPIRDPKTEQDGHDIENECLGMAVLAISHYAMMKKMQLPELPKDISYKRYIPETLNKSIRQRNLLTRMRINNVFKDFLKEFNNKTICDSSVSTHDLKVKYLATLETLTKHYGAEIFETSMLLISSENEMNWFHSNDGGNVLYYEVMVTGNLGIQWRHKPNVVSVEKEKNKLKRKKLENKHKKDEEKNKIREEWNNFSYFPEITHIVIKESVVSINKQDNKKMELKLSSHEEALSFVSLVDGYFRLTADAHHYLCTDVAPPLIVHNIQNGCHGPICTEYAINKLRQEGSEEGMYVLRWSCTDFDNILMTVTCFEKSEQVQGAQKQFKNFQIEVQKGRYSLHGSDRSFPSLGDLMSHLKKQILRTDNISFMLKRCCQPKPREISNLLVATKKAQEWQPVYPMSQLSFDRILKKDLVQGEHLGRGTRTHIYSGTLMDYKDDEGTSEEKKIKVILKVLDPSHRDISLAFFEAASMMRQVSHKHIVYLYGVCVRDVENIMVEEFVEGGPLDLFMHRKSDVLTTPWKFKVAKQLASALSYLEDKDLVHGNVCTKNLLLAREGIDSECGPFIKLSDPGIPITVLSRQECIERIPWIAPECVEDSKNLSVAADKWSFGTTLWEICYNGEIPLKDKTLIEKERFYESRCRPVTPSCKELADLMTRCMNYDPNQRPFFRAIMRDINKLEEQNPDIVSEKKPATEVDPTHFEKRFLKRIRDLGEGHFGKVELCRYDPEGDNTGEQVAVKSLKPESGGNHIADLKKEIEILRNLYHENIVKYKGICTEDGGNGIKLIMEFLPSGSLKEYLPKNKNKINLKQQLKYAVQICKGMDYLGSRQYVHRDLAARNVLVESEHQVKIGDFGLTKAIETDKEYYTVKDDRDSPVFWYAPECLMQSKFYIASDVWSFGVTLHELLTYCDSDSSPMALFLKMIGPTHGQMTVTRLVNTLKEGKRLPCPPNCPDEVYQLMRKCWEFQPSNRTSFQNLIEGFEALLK
Procedure, shortened: as §1

AMPKa1 or AMPKa2 = experiment: Probe-based (AX9989) kinase profiling in Jurkat lysate: AMPKa1 or AMPKa2; format: binding
Procedure, shortened: as §1

TAO2 = target: T5, TAO2 (Homo sapiens, UniProt Q9UL54); experiment: Probe-based (AX9989) kinase profiling in Jurkat lysate: TAO2; format: binding; conditions: read-out: TAO2 Inhibition % at indicated screening concentration; for inhibition at 10 µM: screening concentration 10 μM
T5 construct: screened for activity against several kinases in Jurkat cells; endogenous in cells; host or cells: Jurkat cell lysate
T5 sequence (Q9UL54 1-1235): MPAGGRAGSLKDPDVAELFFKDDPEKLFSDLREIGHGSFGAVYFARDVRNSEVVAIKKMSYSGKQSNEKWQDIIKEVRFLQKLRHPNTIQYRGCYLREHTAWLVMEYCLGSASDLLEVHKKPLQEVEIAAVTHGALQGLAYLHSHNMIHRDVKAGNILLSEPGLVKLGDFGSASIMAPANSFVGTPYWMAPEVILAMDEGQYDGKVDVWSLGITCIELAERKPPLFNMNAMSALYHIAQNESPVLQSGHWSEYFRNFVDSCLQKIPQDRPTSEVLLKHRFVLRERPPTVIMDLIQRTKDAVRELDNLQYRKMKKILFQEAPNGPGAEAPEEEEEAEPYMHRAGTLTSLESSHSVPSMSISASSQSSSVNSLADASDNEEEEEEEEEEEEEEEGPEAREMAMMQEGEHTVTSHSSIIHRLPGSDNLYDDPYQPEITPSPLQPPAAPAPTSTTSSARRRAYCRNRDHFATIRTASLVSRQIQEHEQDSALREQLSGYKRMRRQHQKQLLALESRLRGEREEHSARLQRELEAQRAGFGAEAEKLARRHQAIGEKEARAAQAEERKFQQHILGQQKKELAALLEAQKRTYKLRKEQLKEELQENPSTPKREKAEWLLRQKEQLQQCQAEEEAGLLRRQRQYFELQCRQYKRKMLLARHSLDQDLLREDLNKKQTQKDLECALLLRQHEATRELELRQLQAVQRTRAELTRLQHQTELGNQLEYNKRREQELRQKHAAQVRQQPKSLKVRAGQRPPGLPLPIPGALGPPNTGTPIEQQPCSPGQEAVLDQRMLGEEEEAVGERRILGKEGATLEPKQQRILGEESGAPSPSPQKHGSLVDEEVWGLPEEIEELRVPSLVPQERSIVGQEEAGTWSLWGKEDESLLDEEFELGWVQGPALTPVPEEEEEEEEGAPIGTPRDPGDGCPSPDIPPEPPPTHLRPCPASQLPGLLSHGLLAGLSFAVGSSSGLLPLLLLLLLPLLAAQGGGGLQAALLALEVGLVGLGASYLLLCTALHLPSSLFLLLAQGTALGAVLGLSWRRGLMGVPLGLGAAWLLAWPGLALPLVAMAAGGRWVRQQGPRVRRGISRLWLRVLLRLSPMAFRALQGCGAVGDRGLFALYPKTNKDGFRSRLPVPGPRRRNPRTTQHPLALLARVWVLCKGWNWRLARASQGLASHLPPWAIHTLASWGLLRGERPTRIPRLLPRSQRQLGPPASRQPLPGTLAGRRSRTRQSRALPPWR
Procedure, shortened: as §1

ACK = target: T6, ACK (Homo sapiens, UniProt Q07912); experiment: Probe-based (AX9989) kinase profiling in Jurkat lysate: ACK; format: binding; conditions: read-out: ACK Inhibition % at indicated screening concentration; for inhibition at 10 µM: screening concentration 10 μM
T6 construct: screened for activity against several kinases in Jurkat cells; endogenous in cells; host or cells: Jurkat cell lysate
T6 sequence (Q07912 whole entry): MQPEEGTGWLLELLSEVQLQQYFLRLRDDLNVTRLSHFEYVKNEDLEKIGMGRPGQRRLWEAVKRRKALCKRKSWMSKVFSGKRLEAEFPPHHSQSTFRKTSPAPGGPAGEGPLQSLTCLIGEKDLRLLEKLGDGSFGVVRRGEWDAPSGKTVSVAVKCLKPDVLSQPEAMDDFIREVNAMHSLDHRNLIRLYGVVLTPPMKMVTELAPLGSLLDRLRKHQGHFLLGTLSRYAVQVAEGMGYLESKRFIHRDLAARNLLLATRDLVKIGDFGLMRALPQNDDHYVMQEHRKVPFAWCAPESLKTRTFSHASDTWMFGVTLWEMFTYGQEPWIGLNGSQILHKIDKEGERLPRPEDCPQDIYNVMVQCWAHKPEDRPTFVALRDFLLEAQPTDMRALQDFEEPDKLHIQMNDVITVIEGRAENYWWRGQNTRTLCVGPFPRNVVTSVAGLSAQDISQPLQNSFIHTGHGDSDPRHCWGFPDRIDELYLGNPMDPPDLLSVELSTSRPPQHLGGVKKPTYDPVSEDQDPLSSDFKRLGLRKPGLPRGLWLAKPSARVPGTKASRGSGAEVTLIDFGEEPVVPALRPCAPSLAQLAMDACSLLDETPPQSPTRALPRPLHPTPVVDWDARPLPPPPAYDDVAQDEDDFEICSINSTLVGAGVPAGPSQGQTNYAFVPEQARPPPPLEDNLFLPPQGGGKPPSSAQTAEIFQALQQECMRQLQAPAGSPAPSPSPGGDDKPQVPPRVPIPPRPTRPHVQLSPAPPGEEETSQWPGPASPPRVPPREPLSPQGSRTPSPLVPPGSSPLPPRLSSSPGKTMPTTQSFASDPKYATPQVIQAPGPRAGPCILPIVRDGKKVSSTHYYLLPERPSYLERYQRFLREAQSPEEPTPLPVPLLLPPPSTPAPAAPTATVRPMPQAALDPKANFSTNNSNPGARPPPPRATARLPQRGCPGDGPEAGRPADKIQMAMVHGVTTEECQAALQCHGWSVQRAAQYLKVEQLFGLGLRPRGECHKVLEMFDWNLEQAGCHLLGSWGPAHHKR
Procedure, shortened: as §1

ABL or ARG = experiment: Probe-based (AX9989) kinase profiling in Jurkat lysate: ABL or ARG; format: binding
Procedure, shortened: as §1

[2] = read-out: ERK5 Inhibition % at indicated screening concentration

| SMILES | EC50 (human PBMCs) [µM] | IC50 (ERK5) [µM] | inhibition at 10 µM (ERK5; [2]) [%] | inhibition at 10 µM (AurA) [%] | AurB or AurC Inhibition % at indicated screening concentration (AurB or AurC; screening concentration 10 μM) | inhibition at 10 µM (JAK1) [%] | AMPKa1 or AMPKa2 Inhibition % at indicated screening concentration (AMPKa1 or AMPKa2; screening concentration 10 μM) | inhibition at 10 µM (TAO2) [%] | inhibition at 10 µM (ACK) [%] | ABL or ARG Inhibition % at indicated screening concentration (ABL or ARG; screening concentration 10 μM) | further results |
| --- | --- | --- | --- | --- | --- | --- | --- | --- | --- | --- | --- |
| CCOc1cc(C(=O)N2CC[C@H](NC3CCN(C)CC3)C2)ccc1Nc1cc2c(cn1)N(C)C(=O)c1ccccc1N2C [Compound T61] | 0.42 | – | – | – | – | – | – | – | – | – | inhibition at 10 µM ([1]; screening concentration 10 μM): > 85% |
| CCOc1cc(C(=O)N2CCC(N3CCN(C)CC3)CC2)ccc1Nc1cc2c(cn1)N(C)C(=O)c1ccccc1N2S(C)(=O)=O [Compound T85] | > 15 | > 0.5 | – | – | – | – | – | – | – | – | inhibition at 1 µM (ERK5; screening concentration 1 μM, read-out: ERK5 Inhibition % at indicated screening concentration): ≤ 35%; inhibition at 1 µM (AurA; screening concentration 1 μM): ≤ 35%; AurB or AurC Inhibition % at indicated screening concentration (AurB or AurC; screening concentration 1 μM): E (E is ≦35%); inhibition at 1 µM (JAK1; screening concentration 1 μM): ≤ 35%; AMPKa1 or AMPKa2 Inhibition % at indicated screening concentration (AMPKa1 or AMPKa2; screening concentration 1 μM): E (E is ≦35%); inhibition at 1 µM (TAO2; screening concentration 1 μM): ≤ 35%; inhibition at 1 µM (ACK; screening concentration 1 μM): ≤ 35%; ABL or ARG Inhibition % at indicated screening concentration (ABL or ARG; screening concentration 1 μM): E (E is ≦35%) |
| CN1C(=O)c2ccccc2N(C)c2cc(N[C@H]3C[C@H](O)C3)ncc21 [Compound T88] | 2.53 | > 0.5 | 75 to 90 | 50 to 75 | B (B is >75% to ≦90%) | ≤ 35 | E (E is ≦35%) | 35 to 50 | ≤ 35 | E (E is ≦35%) | – |
| CCOc1cc(C(=O)N2CCN(C3CCN(C)CC3)CC2)ccc1Nc1cc2c(cn1)N(C)C(=O)c1ccccc1[S+]2[O-] (stereo not shown) [Compound T100] | > 15 | > 0.5 | 75 to 90 | ≤ 35 | E (E is ≦35%) | ≤ 35 | E (E is ≦35%) | ≤ 35 | ≤ 35 | E (E is ≦35%) | – |
| CN1C(=O)c2ccccc2S(=O)(=O)c2cc(N[C@H]3CC[C@H](O)CC3)ncc21 [Compound T127] | 4.6 | – | – | – | – | – | – | – | – | – | IC50 [1]: > 5 µM |
